The structures appear in SMILES notation.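 Cultured in 96-well plates, cells were exposed to test compound for 48 hours across five concentrations. GI50: concentration for 50% inhibition of growth. The concentration for full growth arrest is given as TGI.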

Test systems include TK-10 renal; HOP-92 NSCLC; NCI-H226 lung; HCC-2998 colon; KM12 colon; MOLT-4 leukemia; UACC-62 melanoma; NCI-H522 lung; COLO 205 colon; SF-539 CNS.
What all share (test): NCI tumour cell line growth inhibition, 48 h

In the case of `CC([C@H]1CCC2C3CCC4C(=O)C(NC=O)=CC[C@]4(C)C3CC[C@@]21C)N(C)C` (stereo not given in full), the GI50 with TK-10 renal is 9.71 µM; in the assay with HOP-92 NSCLC it was 4.64 µM; in the assay on NCI-H226 lung, 4.72 µM; with HCC-2998 colon it was 4.09 µM; in the assay on KM12 colon, 2.88 µM; with MOLT-4 leukemia it was 2.55 µM. Besides, the GI50 is 1.94 µM with UACC-62 melanoma, 8.2 µM with NCI-H522 lung, 1.75 µM in the assay on COLO 205 colon and 1.58 µM with SF-539 CNS. In addition, the TGI amounted to 29.4 µM in the assay with TK-10 renal; 12.7 µM in the assay with HOP-92 NSCLC; 19.4 µM in the assay on NCI-H226 lung; 14.7 µM in the assay on HCC-2998 colon; 14.2 µM in the assay with KM12 colon; 10.2 µM in the assay with MOLT-4 leukemia. Besides, the TGI in the assay on UACC-62 melanoma was 3.98 µM; with NCI-H522 lung it was more than 31.2 µM; with COLO 205 colon, 3.4 µM; in the assay on SF-539 CNS, 3.14 µM.
With `CC(=O)OC1CC[C@@]2(C)C(CC(OC3OC(CO)C(O)C(O)C3O)[C@]3(C)C2CCC24CC23CC[C@H]4C(C)CC(O)[C@@H](O)C(C)(C)O)C1(C)C` (stereo not given in full), the TGI with TK-10 renal is more than 50 µM; with HOP-92 NSCLC, 19.5 µM; with NCI-H226 lung, 48.5 µM; with HCC-2998 colon, 25.5 µM; with KM12 colon, 19.7 µM; in the assay with MOLT-4 leukemia, 24.7 µM. The TGI in the assay with UACC-62 melanoma amounted to 16.6 µM; with NCI-H522 lung it was 16.2 µM; with COLO 205 colon, 17.1 µM; in the assay on SF-539 CNS, 19.1 µM.
`O=C(CCCCCCCCC(=O)OCCCn1cc(C(=O)NC(=O)OCc2ccccc2)c(=O)[nH]c1=O)OCCCn1cc(C(=O)NC(=O)OCc2ccccc2)c(=O)[nH]c1=O`: the TGI in the assay with TK-10 renal, in the assay with HOP-92 NSCLC, in the assay on NCI-H226 lung, with HCC-2998 colon, in the assay with KM12 colon and in the assay on MOLT-4 leukemia was more than 100 µM each time. The TGI in the assay on UACC-62 melanoma, with NCI-H522 lung, in the assay on COLO 205 colon and in the assay on SF-539 CNS was more than 100 µM throughout.
Turning to `COc1cccc(-n2cnc3c(N/N=C/c4ccncc4)ncnc32)c1`, the GI50 with TK-10 renal is 9.59 µM; with HOP-92 NSCLC, more than 10.4 µM; with NCI-H226 lung, more than 23.9 µM; in the assay with HCC-2998 colon, more than 25 µM; in the assay with KM12 colon, 7.84 µM; with MOLT-4 leukemia, more than 25 µM. The GI50 in the assay with UACC-62 melanoma is 8.2 µM; with NCI-H522 lung, more than 14.6 µM; with COLO 205 colon, 11.4 µM; in the assay with SF-539 CNS, more than 18.9 µM. The TGI in the assay on TK-10 renal, with HOP-92 NSCLC, with NCI-H226 lung, with HCC-2998 colon, with KM12 colon and in the assay on MOLT-4 leukemia was more than 25 µM throughout. In addition, the TGI in the assay with UACC-62 melanoma, with NCI-H522 lung, in the assay with COLO 205 colon and with SF-539 CNS was more than 25 µM throughout.
